Test results as given in the NIST ThermoML archive (doi:10.1021/je400431e).

Assay: mn = molality of the nth substance listed, in mol/kg
Details: 298 K, Ring tensiometer

CCCCCCCCCCCC[N+](C)(C)C.[Cl-] [N,N,N-trimethyl-1-dodecanaminium chloride] + O
Details | surface tension liquid-gas [mN/m]
m1 = 3e-05 | 56.38
m1 = 5e-05 | 51.17
m1 = 7e-05 | 47.18
m1 = 0.0001 | 41.7
m1 = 0.00015 | 35.66
m1 = 0.0002 | 31.91
m1 = 0.0003 | 28.13
m1 = 0.0005 | 25.41
m1 = 0.0007 | 25.28
m1 = 0.001 | 25.68
m1 = 0.0013 | 25.4
m1 = 0.0016 | 25.52

CCCCCCCCCCCCOS(=O)(=O)[O-].[Na+] [sodium dodecyl sulfate] + O
Details | surface tension liquid-gas [mN/m]
m1 = 0.00013 | 66.84
m1 = 0.00031 | 60.83
m1 = 0.00102 | 52.39
m1 = 0.00303 | 45.05
m1 = 0.00501 | 40.55
m1 = 0.007 | 38.58
m1 = 0.008 | 37.41
m1 = 0.009 | 37.73
m1 = 0.01 | 37.99
m1 = 0.012 | 37.76
